Results as given in publication PMC7586386, “Discovery of Covalent Inhibitors Targeting the Transcriptional Enhanced Associate Domain Central Pocket” (Journal of Medicinal Chemistry, 2020).
One block for each molecule: values may come before it.

Key:
hTEAD4 (nonacylated) [1] = target: T1, hTEAD4 (nonacylated) (Homo sapiens, UniProt Q15561); test: Thiol conjugation assay (CPM probe); assay type: binding; details: for Inhibition of the CPM fluorescence signal increase: assay validation with known central pocket binders; for fold reduction of TEAD binding in the thiol conjugation assay: relative to 19
T1 construct: N-terminal His6-tagged hTEAD4^217–434 was subcloned; made in house; host or cells: Escherichia coli BL21-CodonPlus (DE3)-RIPL
Experimental: To serially diluted solutions of the tested compounds in 5 μL of assay buffer [HEPES (25 mM) and NaCl (150 mM) pH 6.5], freshly prepared 5 μL of 0.45 μM protein solution was added and incubated at room temperature for 10 min, followed by addition of 5 μL of 0.45 μM CPM solution, giving a 15 μL final assay volume, 150 nM protein, and 150 nM CPM. The assay plate was shaken at room temperature for 1 h before measuring the fluorescence (Ex/Em: 380/470 nm). Compound 19 was used as an internal standard to determine 100% inhibition.
A library of 14,000 compounds was screened in 1536-well plates using pH 6.5 MES buffer. To the preincubated solution of nonacylated hTEAD4 (0.15 μM final concentration) and compound solution (12.5 μM final concentration), CPM (0.15 μM final concentration) was added, and the assay plates were incubated at room temperature for 50 min before measuring the fluorescence (Ex/Em: 360/465 nm) using Spectramax Paradigm (Molecular Devices). Z′ = 0.6–0.8 (10-plates).

TEAD central pocket = target: TEAD central pocket; design: method as in PMID 26592798; details: read-out: ITC Kd; cited from earlier work
hTEAD4 (nonacylated) [2] = target: T1, hTEAD4 (nonacylated); test: FP-based competitive binding assay with FITC-palmitate tracer; details: relative to 19; for fold increase in the IC50 values: said of the IC50 values of both assays
Experimental: To serially diluted solution of the tested compounds in 5 μL assay buffer [HEPES (25 mM) and NaCl (150 mM), pH 6.5 buffer], freshly prepared 5 μL of 0.15 μM protein solution was added and incubated at room temperature for 10 min followed by 5 μL of 30 nM FITC-palmitate solution, giving 15 μL final assay volume, 50 nM protein, and 10 nM tracer. The assay plate was shaken at room temperature for 1 h before measuring the FP (Ex/Em: 485/535 nm).

hTEAD4 (nonacylated) [3] = target: T1, hTEAD4 (nonacylated); test: Differential scanning fluorimetry; assay type: binding; details: 20 μM protein, 80 μM inhibitor
Experimental: Nonacylated hTEAD4 (20 μM) was incubated in the absence or presence of inhibitors (80 μM) at 25 °C for 10 min. Then, SYPRO orange (Sigma-Aldrich) at a final concentration of 5× was added and the mixture was heated at a ramp rate of 1 °C/min in a qPCR machine (Applied Biosystems). The derivative of the SYPRO orange fluorescent intensity is plotted as a function of temperature.

[4] = Assay media stability (HPLC); assay type: physicochemical; details: MES buffer, pH 6.5, 1 h, rt
Experimental: The compounds were incubated in MES (25 mM), pH 6.5 buffer or HEPES (25 mM) and NaCl (150 mM) pH 6.5 buffer for an hour at room temperature before injecting into a reverse-phase HPLC system (ThermoScientific_Ultimate 3000) equipped with a C18 column (2/50 Nucleodur C18 gravity 1.8 μm von Macherey-Nagel).

mTEAD4 (nonacylated) = target: T2, mTEAD4 (nonacylated) (Mus musculus, UniProt Q62296); test: 1H–15N HSQC NMR; assay type: binding; details: 0.5 mM compound, versus DMSO
T2 construct: made in house
Experimental: The ^13C/^15N-labeled mTEAD4 was prepared following a protocol established earlier,[45] and the protein was deacylated as described above for hTEAD4. ^1H–^15N HSQC spectra in the presence of DMSO or the test compound (0.5 mM) were collected at 37 °C on a Bruker 600 MHz magnet equipped with a cryoprobe in 20 mM HEPES, pH 7.3 buffer containing 150 mM NaCl and 1 mM DTT. The spectra were processed and overlaid.

[5] = target: T3, hTEAD4 (nonacylated) with human YAP50–100 (Homo sapiens, UniProt Q15561); test: FP-based competitive TEAD–YAP interaction assay (FITC-hYAP50–100); assay type: binding; details: versus 19
T3 construct: N-terminal His6-tagged hTEAD4^217–434 was subcloned; made in house; host or cells: Escherichia coli BL21-CodonPlus (DE3)-RIPL (TEAD4); solid-phase synthesis (YAP peptide)
Experimental: All the TEAD–YAP binding experiments were performed in phosphate-buffered saline (PBS) (pH 7.5).
To serially diluted solution of the tested compounds in 5 μL of PBS, freshly prepared 5 μL of protein solution was added and incubated at room temperature for 10 min followed by addition of 5 μL of FAM-YAP^50–100 solution. The assay plate was shaken at room temperature for 1 h before measuring the FP (Ex/Em: 485/535 nm). Final protein and FAM concentrations are as follows (FAM/protein): hTEAD4 (nonacylated): 2 nM/5 nM, hTEAD4 (acylated): 3 nM/15 nM, mTEAD4_Cys360Ser: 10 nM/50 nM, and mTEAD4_Cys360Ala: 10 nM/50 nM.

TEAD target gene ANKRD1 = test: RT-qPCR of TEAD target gene expression in HEK293 cells; assay type: cell-based; details: 6 h
Experimental: HEK293 cells were treated with DMSO or the indicated compound for the indicated duration. RNA was extracted using the RNeasy Plus Mini Kit (QIAGEN, Hilden, Germany) following the manufacturer’s procedure. DNA was removed on the column by DNase digestion with the RNase-free DNase Set (QIAGEN, Hilden, Germany) according to the manufacturer’s instructions. Following the manufacturer’s protocol, cDNA templates were synthesized from 700 ng total RNA using the QuantiTect Reverse Transcription Kit (QIAGEN, Hilden, Germany).
The expression levels of the TEAD target gene ANKRD1 was assessed by real-time quantitative PCR. A total of 100 ng of cDNA was amplified using 500 nM gene-specific primers and SsoAdvanced Universal SYBR Green Supermix (Bio-Rad Laboratories, Feldkirchen, Germany) in a total volume of 10 μL for 50 cycles. All measurements were performed in both technical and biological triplicates using a CFX96 Touch Real-Time PCR Detection System (Bio-Rad Laboratories, Feldkirchen, Germany).
The sequences of primers for ANKRD1 were forward 5′-[…]-3′ and reverse 5′-[…]-3′. The sequences of primers for GAPDH were forward 5′-[…]-3′ and reverse 5′-[…]-3′.

hTEAD4 (nonacylated) [6] = target: T1, hTEAD4 (nonacylated); test: Whole-protein ESI–MS of covalent modification; assay type: binding; details: 8 equiv of compound, 1 h, rt
Experimental: The protein solution (1 μL 5 μM) was injected to UPLC-MS (ThermoScientific_UltiMate 3000 LC coupled to a Velos Pro MS) through a desalting column (MassPREP Online desalting, 2.1 × 10 mm). For reactions, 1 μM of the protein was incubated at room temperature for 1 h with 8 equiv of the compound in HEPES (25 mM) and NaCl (150 mM) pH 6.5 buffer. Then, the mixture was centrifuged before injecting 5 μL. The deconvolution of m/z values was performed using Promass Xcalibur software.

hTEAD4 (nonacylated) [7] = target: T1, hTEAD4 (nonacylated); test: Saturation binding of FITC-palmitate (FP); details: 10 nM tracer
Experimental: To a serially diluted solution of nonacylated hTEAD4 in 12 μL of assay buffer [HEPES (25 mM) and NaCl (150 mM) pH 6.5], 8 μL of 25 nM FITC-palmitate solution was added, giving 20 μL final assay volume with a 10 nM tracer. The assay plate was incubated at room temperature for 1 h before measuring FP (Ex/Em: 485/535 nM).

[8] = design: method as in PMID 21164073; details: acidic 2-OH group; cited from earlier work

T1 sequence (Q15561 217-434): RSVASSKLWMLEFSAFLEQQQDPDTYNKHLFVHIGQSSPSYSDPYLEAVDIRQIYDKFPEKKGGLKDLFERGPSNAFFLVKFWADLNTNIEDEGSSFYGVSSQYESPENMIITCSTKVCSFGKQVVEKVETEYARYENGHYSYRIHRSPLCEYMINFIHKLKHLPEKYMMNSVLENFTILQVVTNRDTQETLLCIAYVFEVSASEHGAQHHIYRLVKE
T2 sequence (Q62296 210-427 limits assumed): as the sequence (Q15561 217-434) above, with V3I, Q19R, G35S, A48T, D67E, E91D, S96A, S142L counted along it
T3 sequence (Q15561 217-434): as the sequence (Q15561 217-434) above

SMILES: O=C(O)c1ccccc1Nc1cccc(C(F)(F)F)c1 [Compound 1, flufenamic acid, reference compound]
Inhibition of the CPM fluorescence signal increase (hTEAD4 (nonacylated) [1]): inhibited the signal increase in a dose-dependent manner | Kd (TEAD central pocket): 73 µM

SMILES: O=C(O)c1cccnc1Nc1cccc(C(F)(F)F)c1 [Compound 2, niflumic acid, reference compound]
Inhibition of the CPM fluorescence signal increase (hTEAD4 (nonacylated) [1]): inhibited the signal increase in a dose-dependent manner | Kd (TEAD central pocket): 28 µM

SMILES: O=C(CCl)c1ccccc1Nc1cccc(C(F)(F)F)c1 [Compound 3, reference compound]
Inhibition of the CPM fluorescence signal increase (hTEAD4 (nonacylated) [1]): inhibited the signal increase in a dose-dependent manner

SMILES: O=c1cc(CO)oc(C(Nc2ncccn2)c2ccccc2)c1O (stereo not shown) [Compound 26, 3-Hydroxy-6-(hydroxymethyl)-2-(phenyl(pyrimidin-2-ylamino)methyl)-4H-pyran-4-one]
fold increase in the IC50 values (hTEAD4 (nonacylated) [2]): more than 20 fold

SMILES: O=c1cc(CO)oc(C(Nc2nccs2)c2ccccc2)c1O (stereo not shown) [Compound 27, 3-Hydroxy-6-(hydroxymethyl)-2-(phenyl(thiazol-2-ylamino)methyl)-4H-pyran-4-one]
fold increase in the IC50 values (hTEAD4 (nonacylated) [2]): more than 20 fold | Tm shift (hTEAD4 (nonacylated) [3]): did not induce any change

SMILES: O=c1cc(CO)occ1O [kojic acid]
pKa [8]: 7.9

SMILES: CCCCCCCCCCCCCCCC(=O)O [palmitic acid, reference compound]
Inhibition of the CPM fluorescence signal increase (hTEAD4 (nonacylated) [1]): inhibited the signal increase in a dose-dependent manner

Further lines, with some results ahead:

fold increase in the IC50 values (hTEAD4 (nonacylated) [2]): more than 20 fold
SMILES: O=c1cc(CO)oc(C(Nc2nc3ccccc3[nH]2)c2ccccc2)c1O (stereo not shown) [Compound 28, 2-(((1H-Benzo[d]imidazol-2-yl)amino)(phenyl)methyl)-3-hydroxy-6-(hydroxymethyl)-4H-pyran-4-one]

fold reduction of TEAD binding in the thiol conjugation assay (hTEAD4 (nonacylated) [1]): 100 fold
SMILES: O=c1cc(CO)oc(C(Nc2ccccc2)C2CCCCC2)c1O (stereo not shown) [Compound 30, 2-(Cyclohexyl(phenylamino)methyl)-3-hydroxy-6-(hydroxymethyl)-4H-pyran-4-one]

fold reduction of TEAD binding in the thiol conjugation assay (hTEAD4 (nonacylated) [1]): 100 fold
SMILES: CC(C)C(Nc1ccccc1)c1oc(CO)cc(=O)c1O (stereo not shown) [Compound 31, 3-Hydroxy-6-(hydroxymethyl)-2-(2-methyl-1-(phenylamino)propyl)-4H-pyran-4-one]

fold reduction of TEAD binding in the thiol conjugation assay (hTEAD4 (nonacylated) [1]): 100 fold
SMILES: O=c1cc(CO)oc(CNc2ccccc2)c1O [Compound 32, 3-Hydroxy-6-(hydroxymethyl)-2-((phenylamino)methyl)-4H-pyran-4-one]

fold lowering of inhibitory activity in the FP assay (hTEAD4 (nonacylated) [2]): 2–3 fold
SMILES: O=c1cc(CO)oc(C(Nc2ccccc2)c2ccccn2)c1O (stereo not shown) [Compound 40, 3-Hydroxy-6-(hydroxymethyl)-2-((phenylamino)(pyridin-2-yl)methyl)-4H-pyran-4-one]

ΔTm at 80 µM (hTEAD4 (nonacylated) [3]; read-out: Tm shift): -2 °C
SMILES: O=c1cc(CO)oc(C(Nc2ccccn2)c2ccc(Br)cc2)c1O (stereo not shown) [Compound 42, 2-((4-Bromophenyl)(pyridin-2-ylamino)methyl)-3-hydroxy-6-(hydroxymethyl)-4H-pyran-4-one]

activity in the thiol conjugation assay (hTEAD4 (nonacylated) [1]): inactive | stability in assay medium [4]: stable | effect on 1H–15N HSQC spectrum (mTEAD4 (nonacylated)): did not induce a significant change | fold lower activity in TEAD–YAP interaction assay [5]: > 100 fold | Tm shift (hTEAD4 (nonacylated) [3]): did not induce any change | modification of the protein (whole-protein ESI–MS) (hTEAD4 (nonacylated) [6]): modification of TEAD was not observed
SMILES: COc1c(C(Nc2ccccc2)c2ccccc2)oc(CO)cc1=O (stereo not shown) [Compound 45, 6-(Hydroxymethyl)-3-methoxy-2-(phenyl(phenylamino)methyl)-4H-pyran-4-one]
reduction of the mRNA level of ANKRD1 compared to the DMSO control (TEAD target gene ANKRD1): only a minimal effect

activity in the thiol conjugation assay (hTEAD4 (nonacylated) [1]): inactive
SMILES: COc1c(C(Nc2ccccn2)c2ccccc2F)oc(CO)cc1=O (stereo not shown) [Compound 46, 2-((2-Fluorophenyl)(pyridin-2-ylamino)methyl)-6-(hydroxymethyl)-3-methoxy-4H-pyran-4-one]

Kd (hTEAD4 (nonacylated) [7]): 0.028 µM
SMILES: CCCCCCCCCCCCCCCC(=O)NCCCOCCOCCOCCCNC(=S)Nc1ccc(-c2c3ccc(=O)cc-3oc3cc(O)ccc23)c(C(=O)O)c1 [Compound S4, 2-(6-Hydroxy-3-oxoi-3H-xanthen-9-yl)-5-(3-(15-oxo-4,7,10-trioxa-14-azatriacontyl)thioureido)benzoic Acid]
